Measurements published in patent US9725414B2, “Fungicidal N-bicycloalkyl and N-tricycloalkyl pyrazole-4-(thio)carboxamide derivatives” (priority 2011, dated 2017).

Legend:
Botrytis cinerea [1] = experiment: Example P: in vivo preventive test on Botrytis cinerea (grey mould), gherkin plants; details: 500 ppm of active ingredient, grading 4 to 5 days after contamination
How it was run: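 Gherkin plants at Z11 cotyledon stage sprayed preventively with active ingredient, then inoculated 24 h later with B. cinerea spores (50 000/mL) in PDB/fructose nutrient solution. Incubation at 17 °C and 90% RH; % efficacy graded 4–5 days post-inoculation against solvent-treated controls.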

Alternaria brassicae = experiment: Example D: in vivo preventive test on Alternaria brassicae (leaf spot on radish); details: 500 ppm of active ingredient, grading 6 days after contamination
How it was run: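 Radish plants at cotyledon stage were sprayed with compound; controls got the acetone/tween/DMSO/water mix alone. After 24 h they were inoculated with Alternaria brassicae spores (50 000 spores per mL) and kept at 20 °C, 100% relative humidity. % efficacy versus controls was graded 6 days post-inoculation.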

Pyricularia oryzae = assay type: in vivo; details: Pyricularia oryzae on rice plants, preventive, 500 ppm of active ingredient, grading 6 days after contamination
Pyrenophora teres [2] = experiment: Example F: in vivo preventive test on Pyrenophora teres (barley), acetone/tween/DMSO preparation; details: 500 ppm of active ingredient, barley, grading 14 days after contamination
How it was run: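 Barley ("Plaisant") grown at 22° C was sprayed at the 1-leaf stage (10 cm) with active ingredient in acetone/tween/DMSO/water, with solvent-only controls. After 24 h, leaves were inoculated with Pyrenophora teres spores (12 000 spores per mL) from 12-day cultures. % efficacy versus controls graded 14 days post-contamination.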

Septoria tritici [3] = experiment: Example I: in vivo preventive test on Septoria tritici (wheat), acetone/tween/DMSO preparation; details: 500 ppm of active ingredient, grading 24 days after contamination
How it was run: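 Scipion wheat grown at 22° C, sprayed at 1-leaf stage (10 cm); controls received acetone/tween/DMSO/water without active. Inoculated 24 h later with S. tritici spores (500 000/mL), held 72 h at 18° C, 100% RH, then 21 days at 90% RH. % efficacy vs controls scored 24 days post-inoculation.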

Puccinia recondita = experiment: Example M: in vivo preventive test on Puccinia recondita (brown rust on wheat); details: 500 ppm of active ingredient, grading 12 days after contamination
How it was run: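 Wheat (Scipion) sprayed with compound at 1-leaf stage, grown at 22° C. Inoculated 24 h later with a spore suspension at 100 000 spores per mL. Efficacy (%) graded 12 days after inoculation against solvent-treated controls.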

Sphaerotheca fuliginea [4] = experiment: Example B: in vivo preventive test on Sphaerotheca fuliginea (powdery mildew on cucurbits), gherkin plants; details: 500 ppm of active ingredient, grading 12 days after contamination
How it was run: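 Gherkin plants grown at 24 °C were sprayed with compound at the Z11 cotyledon stage; controls received acetone/tween/DMSO/water without active. 24 h later, cotyledons were inoculated by spraying with Sphaerotheca fuliginea spores (100 000 spores per mL).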

Uromyces appendiculatus = experiment: Example Q: in vivo preventive test on Uromyces appendiculatus (bean rust); details: Uromyces appendiculatus on bean plants, 500 ppm of active ingredient, grading 11 days after contamination
How it was run: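 Saxa bean plants at 2-leaf stage, grown at 24° C., sprayed preventively with compound; 24 h later inoculated with U. appendiculatus spores (150 000 spores per mL). Percent efficacy graded 11 days after inoculation versus solvent-treated controls.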

[5] = log P by HPLC on reversed-phase column (C 18), EEC Directive 79831 Annex V.A8; assay type: physicochemical; details: for logP: HPLC reversed-phase C 18, 40° C., 0.1% aqueous formic acid and acetonitrile gradient, several values = mixture of two or more isomers
How it was run: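 Reversed-phase C18 HPLC at 40° C, 0.1% aqueous formic acid/acetonitrile linear gradient 10% to 90% acetonitrile, per EEC Directive 79831 Annex V.A8. log P obtained from retention time by linear interpolation between unbranched alkan-2-ones (C3-C16) of known log P.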

Botrytis cinerea [6] = experiment: Example O: in vivo protective test on Botrytis cinerea (beans); details: 100 ppm of active ingredient, lesion size 2 days after inoculation
Procedure: In Vivo Protective Test on Botrytis cinerea (Beans)
Solvent: 24.5 parts by weight of acetone • 24.5 parts by weight of N,N-dimethylacetamide
(§1) Emulsifier: 1 part by weight of alkylaryl polyglycol ether
To produce a suitable preparation of active compound, 1 part by weight of active compound is mixed with the stated amounts of solvent and emulsifier, and the concentrate is diluted with water to the desired concentration.
To test for preventive activity, young plants are sprayed with the preparation of active compound. After the spray coating has dried on, 2 small pieces of agar covered with growth of Botrytis cinerea are placed on each leaf. The inoculated plants are placed in a darkened chamber at 20° C. and a relative atmospheric humidity of 100%.
2 days after the inoculation, the size of the lesions on the leaves is evaluated. 0% means an efficacy which corresponds to that of the untreated control, while an efficacy of 100% means that no disease is observed.

Venturia inaequalis = experiment: Example G: in vivo preventive test on Venturia inaequalis (apple scab); details: 100 ppm of active ingredient, evaluated 10 days after inoculation
Procedure: In Vivo Preventive Test on Venturia inaequalis (Apple Scab) Solvent: 24.5 parts by weight of acetone • 24.5 parts by weight of N,N-dimethylacetamide Emulsifier: 1 part by weight of alkylaryl polyglycol ether To produce a suitable preparation of active compound, 1 part by weight of active compound is mixed with the stated amounts of solvent and emulsifier, and the concentrate is diluted with water to the desired concentration. To test for preventive activity, young plants are sprayed with the preparation of active compound at the stated rate of application. After the spray coating has dried on, the plants are inoculated with an aqueous conidia suspension of the causal agent of apple scab (Venturia inaequalis) and then remain for 1 day in an incubation cabinet at approximately 20° C. and a relative atmospheric humidity of 100%. The plants are then placed in a greenhouse at approximately 21° C. and a relative atmospheric humidity of approximately 90%.

Sphaerotheca fuliginea [7] = experiment: Example A: in vivo preventive test on Sphaerotheca fuliginea (cucumber); details: 500 ppm of active ingredient, evaluated 7 days after inoculation
Procedure: In Vivo Preventive Test on Sphaerotheca fuliginea (Cucumber) Solvent: 49 parts by weight of N,N-dimethylformamide Emulsifier: 1 part by weight of alkylarylpolyglycolether To produce a suitable preparation of active compound, 1 part by weight of active compound is mixed with the stated amounts of solvent and emulsifier, and the concentrate is diluted with water to the desired concentration. To test for preventive activity, young plants are sprayed with the preparation of active compound at the stated rate of application. One day after this treatment, the plants are inoculated with an aqueous spore suspension of Sphaerotheca fuliginea. Then the plants are placed in a greenhouse at approximately 23° C. and a relative atmospheric humidity of approximately 70%.

[8] = tested on: Fusarium nivale (var. majus); experiment: Example N: in vivo preventive test on Fusarium nivale (wheat); details: 500 ppm of active ingredient, evaluated 5 days after inoculation
Procedure: In Vivo Preventive Test on Fusarium nivale (Wheat) Solvent: 49 parts by weight of N,N-dimethylacetamide Emulsifier: 1 part by weight of alkylaryl polyglycol ether To produce a suitable preparation of active compound, 1 part by weight of active compound or active compound combination is mixed with the stated amounts of solvent and emulsifier, and the concentrate is diluted with water to the desired concentration. To test for preventive activity, young plants are sprayed with the preparation of active compound or active compound combination at the stated rate of application. After the spray coating has been dried, the plants are slightly injured by using a sandblast and afterwards they are sprayed with a conidia suspension of Fusarium nivale (var. majus). The plants are placed in the greenhouse under a translucent incubation cabinet at a temperature of approximately 10° C. and a relative atmospheric humidity of approximately 100%.

Septoria tritici [9] = experiment: Example H: in vivo preventive test on Septoria tritici (wheat), N,N-dimethylacetamide/emulsifier preparation; details: 500 ppm of active ingredient, evaluated 21 days after inoculation
Procedure: (§2) In Vivo Preventive Test on Septoria tritici (Wheat) Solvent: 49 parts by weight of N,N-dimethylacetamide Emulsifier: 1 part by weight of alkylaryl polyglycol ether To produce a suitable preparation of active compound, 1 part by weight of active compound or active compound combination is mixed with the stated amounts of solvent and emulsifier, and the concentrate is diluted with water to the desired concentration. To test for preventive activity, young plants are sprayed with the preparation of active compound or active compound combination at the stated rate of application. After the spray coating has been dried, the plants are sprayed with a spore suspension of Septoria tritici. The plants remain for 48 hours in an incubation cabinet at approximately 20° C. and a relative atmospheric humidity of approximately 100% and afterwards for 60 hours at approximately 15° C. in a translucent incubation cabinet at a relative atmospheric humidity of approximately 100%.

Alternaria solani = experiment: Example C: in vivo preventive test on Alternaria solani (tomato); details: 500 ppm of active ingredient, evaluated 7 days after inoculation
How it was run: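 Young tomato plants sprayed preventively with compound formulated in DMF/emulsifier and diluted with water, then inoculated one day later with Alternaria solani spores. Plants were held one day at about 22° C, 100% humidity, then at about 20° C, 96% humidity.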

Pyrenophora teres [10] = experiment: Example E: in vivo preventive test on Pyrenophora teres (barley), DMF/emulsifier preparation; details: 500 ppm of active ingredient, evaluated 7-9 days after inoculation
How it was run: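 Young barley plants sprayed preventively with compound formulated in DMF/alkylaryl polyglycol ether emulsifier and diluted in water. One day later inoculated with aqueous Pyrenophora teres spore suspension, then held 48 h at 22 °C and 100% relative humidity.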

Puccinia triticina = experiment: Example L: in vivo preventive test on Puccinia triticina (wheat); details: 500 ppm of active ingredient, evaluated 8 days after inoculation
Procedure: In Vivo Preventive Test on Puccinia triticina (Wheat)
Solvent: 49 parts by weight of N,N-dimethylacetamide
as §1
To produce a suitable preparation of active compound, 1 part by weight of active compound or active compound combination is mixed with the stated amounts of solvent and emulsifier, and the concentrate is diluted with water to the desired concentration.
To test for preventive activity, young plants are sprayed with the preparation of active compound or active compound combination at the stated rate of application.
After the spray coating has been dried, the plants are sprayed with a spore suspension of Puccinia triticina.
The plants remain for 48 hours in an incubation cabinet at approximately 20° C. and a relative atmospheric humidity of approximately 100%.
The plants are placed in the greenhouse at a temperature of approximately 20° C. and a relative atmospheric humidity of approximately 80%.
The test is evaluated 8 days after the inoculation. 0% means an efficacy which corresponds to that of the untreated control, while an efficacy of 100% means that no disease is observed.

[11] = tested on: Blumeria graminis f.sp. hordei; experiment: Example J: in vivo preventive test on Blumeria graminis (barley); details: 500 ppm of active ingredient, evaluated 7 days after inoculation
Procedure: In Vivo Preventive Test on Blumeria graminis (Barley) Solvent: 49 parts by weight of N,N-dimethylacetamide Emulsifier: 1 part by weight of alkylaryl polyglycol ether To produce a suitable preparation of active compound, 1 part by weight of active compound or active compound combination is mixed with the stated amounts of solvent and emulsifier, and the concentrate is diluted with water to the desired concentration. To test for preventive activity, young plants are sprayed with the preparation of active compound or active compound combination at the stated rate of application. After the spray coating has been dried, the plants are dusted with spores of Blumeria graminis f.sp. hordei.

Leptosphaeria nodorum = experiment: Example K: in vivo preventive test on Leptosphaeria nodorum (wheat); details: 500 ppm of active ingredient, evaluated 8 days after inoculation
Procedure: as §2, with “Leptosphaeria nodorum” for “Septoria tritici”, “Leptosphaeria nodorum.” for “Septoria tritici.”, “approximately” for “approximately 100% and afterwards for 60 hours at approximately 15° C. in a translucent incubation cabinet at a relative atmospheric humidity of approximately”

SMILES	Efficacy (Botrytis cinerea [1]) [%]	Efficacy (Alternaria brassicae) [%]	Efficacy (Pyricularia oryzae) [%]	Efficacy (Pyrenophora teres [2]) [%]	Efficacy (Septoria tritici [3]) [%]	Efficacy (Puccinia recondita) [%]	Efficacy (Sphaerotheca fuliginea [4]) [%]	Efficacy (Uromyces appendiculatus) [%]	logP [5]	Efficacy (Botrytis cinerea [6]) [%]	Efficacy (Venturia inaequalis) [%]	Efficacy (Sphaerotheca fuliginea [7]) [%]	Efficacy [8] [%]	Efficacy (Septoria tritici [9]) [%]	Efficacy (Alternaria solani) [%]	Efficacy (Pyrenophora teres [10]) [%]	Efficacy (Puccinia triticina) [%]	Efficacy [11] [%]	Efficacy (Leptosphaeria nodorum) [%]	chromatographic logP [5]
Cn1nc(C(F)F)c(C(=O)N(C2CC2)C2CCCC3CCCCC32)c1F (mixture of isomers) [Example 31]	100	100	80	97	96	100	100	100	–	–	–	–	–	–	–	–	–	–	–	–
Cn1nc(C(F)F)c(C(=O)NC2CCC3CCCC32)c1F (stereo not shown) [Example 2]	70	70	71	–	–	98	–	98	2.86	–	–	–	–	–	–	–	–	–	–	–
CON(C(=O)c1cn(C)nc1C(F)F)C1CCC2CCCCC21 (stereo not shown) [Example 11]	–	100	92	100	71	94	100	100	3.50	–	–	–	–	–	–	–	–	–	–	–
CC1CC(C)(C)C2CCCC(NC(=O)c3c(C(F)F)nn(C)c3F)C12 (stereo not shown) [Example 14]	–	–	–	–	–	–	–	–	4.29	100	99	98	88	75	100	100	83	90	–	–
Cn1nc(C(F)F)c(C(=O)N(CC2(Cc3ccccc3)CC3CCC2C3)C2CC2)c1Cl (stereo not shown) [Example 68]	–	–	80	–	71	75	98	–	5.06	–	–	–	–	–	–	–	–	–	–	–
CC(C1CC2CCC1C2)N(C(=O)c1cn(C)nc1C(F)F)C1CC1 (stereo not shown) [Example 94]	–	–	–	–	–	–	–	–	3.52	100	100	100	100	100	100	100	–	89	80	–
Cc1nn(C)c(F)c1C(=O)N(C1CC1)C(C)C12CC3CC(CC(C3)C1)C2 (stereo not shown) [Example 103, N-[1-(adamantan-1-yl)ethyl]-N-cyclopropyl-5-fluoro-1,3-dimethyl-1H-pyrazole-4-carboxamide]	–	–	–	–	–	–	–	–	–	99	100	96	–	100	100	100	–	–	–	4.3
CC(N(C(=O)c1cn(C)nc1C(F)F)C1CC1)C12CC3CC(CC(C3)C1)C2 (stereo not shown) [Example 105]	–	–	–	–	–	–	–	–	4.30	100	100	100	–	80	95	100	–	–	–	–
